# Reference: patent publication US20230312481A1, “SUBSTITUTED (PHTHALAZIN-1-YLMETHYL)UREAS, SUBSTITUTED N-(PHTHALAZIN-1-YLMETHYL)AMIDES, AND ANALOGUES THEREOF” (priority 2020, published 2023)
# Tested on: HBV rcDNA in HepDE19 cells
# Assay: HepDE19 assay with bDNA quantitation of HBV rcDNA
# Format: cell-based, hepatitis B virus
# Conditions: HepDE19 cells, 7 day incubation, rcDNA measured by Quantigene 2.0 bDNA assay; top concentration 25 µM; read-out: DE-19bDNA EC50
# Procedure, shortened: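 HepDE19 cells were induced by tetracycline withdrawal, then treated with compounds (0.5% DMSO final) for 7 days at 37 °C. HBV rcDNA measured by bDNA assay with HBV-specific probes. Viability assessed on replicate plates (5,000 cells/well, 4 days) by CellTiter-Glo ATP content.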
row,SMILES,EC50
1,"CC(c1n[nH]c(=O)c2cc(F)c(F)cc12)N(C)C(=O)c1cnc(C(F)(F)F)c(Cl)c1 (single isomer, unassigned) [Compound 93, 5-chloro-N-(1-(6,7-difluoro-4-oxo-3,4-dihydrophthalazin-1-yl)ethyl)-N-methyl-6-(trifluoromethyl)nicotinamide]",1660 nM
2,"CC(c1n[nH]c(=O)c2cc(F)c(F)cc12)N(C)C(=O)c1cnc(C(F)(F)F)c(Cl)c1 (single isomer, unassigned) [Compound 92, 5-chloro-N-(1-(6,7-difluoro-4-oxo-3,4-dihydrophthalazin-1-yl)ethyl)-N-methyl-6-(trifluoromethyl)nicotinamide]",> 25000 nM

# Same assay, conditions: Hepatitis B virus, HepDE19, 168 h, HepDE19 cells, 7 day incubation, rcDNA measured by Quantigene 2.0 bDNA assay; top concentration 25 µM; read-out: DE-19bDNA EC50
row,SMILES,EC50
1,"CC(c1n[nH]c(=O)c2cc(F)c(F)cc12)N(C)C(=O)c1cc2c(Cl)cccn2c1 (racemic) [Compound 75, 8-chloro-N-(1-(6,7-difluoro-4-oxo-3,4-dihydrophthalazin-1-yl)ethyl)-N-methylindolizine-2-carboxamide]",60 nM
2,"CC(c1n[nH]c(=O)c2cc(F)c(F)cc12)N(C)C(=O)Nc1ccc(F)c(Cl)c1 (racemic) [Compound 29, 3-(3-chloro-4-fluorophenyl)-1-(1-(6,7-difluoro-4-oxo-3,4-dihydrophthalazin-1-yl)ethyl)-1-methylurea]",23 nM
3,"CC(c1n[nH]c(=O)c2cc(F)c(F)cc12)N(C)C(=O)Nc1ccc(F)c(C(F)F)c1 (racemic) [Compound 73, 1-(1-(6,7-difluoro-4-oxo-3,4-dihydrophthalazin-1-yl)ethyl)-3-(3-(difluoromethyl)-4-fluorophenyl)-1-methylurea]",20 nM
4,"CC(C)CN(C(=O)Nc1ccc(F)c(Cl)c1)C(C)c1n[nH]c(=O)c2cc(Cl)ccc12 (racemic) [Compound 10, 3-(3-chloro-4-fluorophenyl)-1-(1-(6-chloro-4-oxo-3,4-dihydrophthalazin-1-yl)ethyl)-1-isobutylurea]",20 nM
5,"CC(c1n[nH]c(=O)c2ccccc12)N(C)C(=O)Nc1ccc(F)c(Cl)c1 (racemic) [Compound 1, 3-(3-chloro-4-fluoro-phenyl)-1-methyl-1-[1-(4-oxo-3H-phthalazin-1-yl)ethyl]urea]",240 nM
6,"CC(c1n[nH]c(=O)c2c(F)cccc12)N(C)C(=O)Nc1ccc(F)c(F)c1 (centres unmarked) [Compound 45, 3-(3,4-difluorophenyl)-1-(1-(5-fluoro-4-oxo-3,4-dihydrophthalazin-1-yl)ethyl)-1-methylurea]",790 nM
7,"CCN(C(=O)c1cc2ccccc2[nH]1)C(C)c1n[nH]c(=O)c2cc(F)c(F)cc12 (racemic) [Compound 48, N-(1-(6,7-difluoro-4-oxo-3,4-dihydrophthalazin-1-yl)ethyl)-N-ethyl-1H-indole-2-carboxamide]",60 nM
8,"CC(C)CN(C(=O)Nc1ccc(F)cc1)C(C)c1nn(C)c(=O)c2ccccc12 (racemic) [Compound 9, 3-(4-fluorophenyl)-1-isobutyl-1-(1-(3-methyl-4-oxo-3,4-dihydrophthalazin-1-yl)ethyl)urea]",30 nM

# Same assay, conditions: Hepatitis B virus, HepDE19, 168 h, read-out: DE-19bDNA EC50
row,SMILES,EC50
1,"CC(C)CN(C(=O)Nc1ccccc1)C(C)c1n[nH]c(=O)c2cc(F)c(F)cc12 (centres unmarked) [Compound 40, 1-(1-(6,7-difluoro-4-oxo-3,4-dihydrophthalazin-1-yl)ethyl)-1-isobutyl-3-phenylurea]",17 nM
